# Results published in patent publication US7537910B2, “Lactamase amplification substrate” (Discoverx Corp., priority 2005, dated 2009).
# What was measured:
# [1] = test system: EA (enzyme acceptor fragment of β-galactosidase); assay: Enzyme Fragment Complementation (EFC) assay; assay type: biochemical; settings: 50 nM ED, EA plus chemiluminescence substrate, 60 min room temperature; compared to linear ED (cysteines capped with maleimide)
# Experimental: For determination of EFC activity, 10 μL of 50 nM cyclic ED-Lactamase substrate (cED47mer) or 10 μl linear ED (Cysteines capped with maleimide, DiscoveRx, Fremont, Calif.) 50 nM was added to 20 μl EDDB Enzyme donor dilution buffer (MES 10 mM, NaCl 200 mM, EGTA 10 mM, BSA 2 mg/ml, NaN3 14.6 mM) (DiscoveRx, Fremont, Calif.) in a 384-well white plate.
# TEM-1 lactamase = TEM-1 lactamase (Escherichia coli, UniProt P62593); settings: cED47mer 50 nM, CHOK1 cell lysates, 3-hour incubation with varying TEM1 lactamase (picomole), read 1 hr after EA and substrate
# Experimental: The assay comprises two basic steps: • 1) hydrolysis of the lactam in the cyclic ED lactamase substrate (cED 47mer) by the lactamase to yield a linear ED; and • 2) detection of the linear ED by EA and β-galactosidase chemiluminescent substrate. The lactamase reaction step comprises 101 of cell lysate (<4000 CHOK1 cells, DiscoveRx, Fremont, Calif.) or cell lysis buffer (part # 30-175, DiscoveRx, Fremont, Calif.), 10 μl cED47mer substrate at 50 nM and 10 μl of lactamase (TEM-1, Invitrogen Part # PV3575) at varying concentrations. The reaction mixture is then incubated at ambient temperature for various time intervals. The detection step comprises addition of 10 μL1 EA (1-2 μM, DiscoveRx, Fremont, Calif.) and 10 μl chemiluminescent substrate reagent (Applied Biosystems, Foster City, Calif.).
# The chemiluminescence was read 1 hr after addition of EA and chemiluminescent substrate on a Packard Lumincount Reader (Packard Instruments, Meridien, Conn.) with the PMT set at 1100V and read time 1 second per well.
substance,measurement,setting,value
cED47mer: 47-mer β-galactosidase enzyme donor peptide (SEQ ID NO:1) cyclized through its two cysteines with bis-maleimide cephem compound 3 (CSLAVVLQQRRDWENPGVTQLNRLAAHPPFASWRNSEEARTDCPSQQL; cyclized via cysteines with bis-maleimide cephem compound 3; …ON),EFC activity (FIG. 4),[1],reduction of EFC activity
same,chemiluminescence signal after cleavage with lactamase (FIG. 5),TEM-1 lactamase,increased with concentration of E. coli TEM1 lactamase (picomole) in a dose dependent fashion
